Test [1] has as its target Sigma non-opioid intracellular receptor 1 (Homo sapiens, UniProt Q99720). Nature of the test: Displacement [3H]-Pentazocine from sigma 1 receptor (unknown origin) expressed in HEK cell membranes.
Test [2] concerns the target Sigma intracellular receptor 2 (Homo sapiens, UniProt Q5BJF2). Nature of the test: Displacement [3H]-DTG from sigma 2 receptor (unknown origin) expressed in HEK cell membranes.
For the next test, the species on record is Homo sapiens. The experiment in a line: Selectivity index, ratio of Ki for displacement [3H]-Pentazocine from sigma 1 receptor (unknown origin) expressed in HEK cell membranes to Ki for [3H]-DTG from sigma 2 receptor (unknown origin) expressed in HEK cell membranes.

Chain of Sigma non-opioid intracellular receptor 1 (Q99720 whole entry): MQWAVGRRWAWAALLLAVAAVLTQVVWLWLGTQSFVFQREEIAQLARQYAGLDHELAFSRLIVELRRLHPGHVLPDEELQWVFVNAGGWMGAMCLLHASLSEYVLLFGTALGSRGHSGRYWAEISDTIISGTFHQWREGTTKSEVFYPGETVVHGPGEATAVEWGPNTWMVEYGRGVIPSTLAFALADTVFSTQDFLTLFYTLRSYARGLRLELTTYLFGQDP
Chain of Sigma intracellular receptor 2 (Q5BJF2 whole entry): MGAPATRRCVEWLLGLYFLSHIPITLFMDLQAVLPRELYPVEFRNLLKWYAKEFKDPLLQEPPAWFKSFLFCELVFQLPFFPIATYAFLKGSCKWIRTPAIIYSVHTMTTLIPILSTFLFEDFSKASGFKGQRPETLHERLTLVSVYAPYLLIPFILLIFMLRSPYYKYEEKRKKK

Take `Fc1ccc(CCCCN2CCCN(c3ccc(Cl)cc3)CC2)cc1`: the Ki came out at 3.6 nM in test [1] (read-out: Ki) and 8.5 nM in test [2]. Further, the Ratio Ki in the test filed under Homo sapiens was 0.4.
With `O/N=C(/CCCN1CCCN(c2ncccn2)CC1)c1ccc(F)cc1`, the Ki was found to be 148 nM in test [1] (read-out: Ki) and 26 nM in test [2]. Besides, in the test listed under Homo sapiens, the Ratio Ki was determined as 5.7.
As for `OC1(c2ccc(Cl)cc2)CC2CCC(C1)N2CCCOc1ccc(F)cc1` (stereo unspecified), the Ki in test [1] (read-out: Ki) came to 166 nM; in test [2], 18 nM.
Regarding `O=C(CCCN1CCN(c2ccccn2)CC1)c1ccc(F)cc1` [AZAPERONE], the Ki in test [1] (read-out: Ki) came to 403 nM; in test [2] it was 52 nM. Besides, the Ratio Ki in the test filed under Homo sapiens is 7.8.
Taken in the same sequence, the figures for `Fc1ccc(OCCCN2CCN(c3ccccc3)CC2)cc1` were 41.5 nM, 5.12 nM and 8.1.
Taken in the same sequence, the figures for `O/N=C(/CCCN1CCCN(c2ccccn2)CC1)c1ccc(F)cc1` were 70 nM, 13.1 nM and 5.3.
For `Fc1ccc(OCCCN2CCCN(c3ccc(Cl)cc3)CC2)cc1`, the Ki in test [1] (read-out: Ki) worked out at 2.9 nM; in test [2] it was 5.9 nM. In addition, in the test filed under Homo sapiens, the Ratio Ki stood at 0.5.
Taken in the same sequence, the figures for `O=C(CCCN1CCCN(c2ccc(Cl)cn2)CC1)c1ccc(F)cc1` were 30 nM, 8 nM and 3.8.
Taken in the same sequence, the figures for `Fc1ccc(CCCCN2CCN(c3ccc(Cl)cn3)CC2)cc1` were 95 nM, 43 nM and 2.2.
Regarding `O=C(CCCN1CCCN(c2ccccn2)CC1)c1ccc(F)cc1`, the Ki was 457 nM in test [1] (read-out: pKi (converted)) and 32 nM in test [2]. In addition, the Ratio Ki in the test listed under Homo sapiens was 14.
As for `OC1(c2ccc(Cl)cc2)CC2CCC(C1)N2CCCCc1ccc(F)cc1` (stereo unspecified), the values for the Ki in test [1] (read-out: Ki) and in test [2] were 22 nM and 27 nM, respectively. The Ratio Ki in the test filed under Homo sapiens is 0.8.
As for `[O-][S+](CCCN1CCN(c2ccc(Cl)cc2)CC1)c1ccc(F)cc1` (stereo unspecified), the Ki turned out to be 1150 nM in test [1] (read-out: Ki) and 600 nM in test [2]. In addition, in the test listed under Homo sapiens, the Ratio Ki was 1.9.
In the case of `Fc1ccc(SCCCN2CCCN(c3ccc(Cl)cn3)CC2)cc1`, the Ki in test [1] (read-out: Ki) is 7.2 nM; in test [2] it was 2.2 nM. Also, the Ratio Ki in the test listed under Homo sapiens was determined as 3.3.
In the case of `OC1(c2ccc(Cl)cc2)CC2CCC(C1)N2CCCSc1cccc(F)c1` (stereo unspecified), the Ki came to 71 nM in test [1] (read-out: Ki) and 8.1 nM in test [2]. Moreover, the Ratio Ki in the test filed under Homo sapiens came to 8.8.
With `c1ccc(OCCCN2CCN(c3ccccc3)CC2)cc1`, the Ki in test [1] (read-out: Ki) was found to be 77.1 nM; in test [2], 25.1 nM. Further, the Ratio Ki in the test filed under Homo sapiens worked out at 3.1.
As to `Fc1ccc(CCCCN2CCN(c3ccc(Cl)cc3)CC2)cc1`, in test [1] (read-out: Ki), the Ki was 36 nM.
`Clc1ccc(N2CCN(CCCOc3ccccc3)CC2)cc1`: the values for the Ki in test [1] (read-out: Ki) and in test [2] were 51.7 nM and 33 nM, respectively. The Ratio Ki in the test listed under Homo sapiens was found to be 1.6.
Taken in the same sequence, the figures for `O=C(CCCN1CCN(c2ccc(Cl)cn2)CC1)c1ccc(F)cc1` were 25 nM, 8.4 nM and 3.
Regarding `OC1(c2ccc(Cl)cc2)CC2CCC(C1)N2CCCSc1ccc(F)cc1` (stereo unspecified), the Ki in test [1] (read-out: Ki) amounted to 81 nM.
For the compound `O=C(CCCN1CCCN(c2ncccn2)CC1)c1ccc(F)cc1`, the values for the Ki in test [1] (read-out: Ki) and in test [2] were 63 nM and 44 nM, respectively. Besides, the Ratio Ki in the test listed under Homo sapiens came to 1.4.
Consider `O/N=C(/CCCN1CCCN(c2ccc(Cl)cn2)CC1)c1ccc(F)cc1`, for which the Ki in test [1] (read-out: Ki) was 113 nM; in test [2] it was 2.7 nM. For the same compound, the Ratio Ki in the test filed under Homo sapiens is 41.8.
Taken in the same sequence, the figures for `OC1(c2ccc(Cl)cc2)CC2CCC(C1)N2CCCSc1ccccc1F` (stereo unspecified) were 57 nM, 2.2 nM and 25.9.
